In patent US10369123B2, “Perk activator for the treatment of neurodegenerative diseases” (DEUTSCHES ZENTRUM FÜR NEURODEGENERATIVE ERKRANKUNGEN E.V. …, priority 2014, dated 2019):

Columns and labels:
Assay type in all cases: cell-based, human
[1] = tested on: 4R-tau and 3R-tau isoforms; test: Western blot of 3R-/4R-tau isoforms, annonacin model; conditions: annonacin 25 nM, 48 h
Experimental: Nunc™ Nunclon™ Delta 6-well (for protein and mRNA) or 48-well (for cell assays) plates (Thermo Fisher Scientific, Waltham, Mass., USA) were coated with 100 μg/ml poly-L-lysine (Sigma-Aldrich, St. Louis, Mo., USA) and 5 μg/ml fibronectin (Sigma-Aldrich). LUHMES (Lund Human Mesencephalic) cells, derived from human embryonic ventral mesencephalic cells by conditional immortalization (Tet-off v-myc over-expression) were seeded out in a concentration of 130,000 cells/cm^2 to achieve a confluence of 50%. They were then differentiated for 8 days in a medium of DMEM/F12 (Sigma-Aldrich), 1 μg/ml tetracycline, […] and 490 μg/ml dbcAMP into post-mitotic neurons with a dopaminergic phenotype (Lotharius et al. 2005). […]
Protein was extracted by scraping the cells from the culture plate with Mammalian Protein Extraction Reagent (M-PER, Thermo Fisher Scientific) and 1× cOmplete Protease Inhibitor Cocktail Tablets (Hoffmann-La Roche, Basel, Switzerland) and 1× PhosSTOP Phosphatase Inhibitor Cocktail Tablets (Hoffmann-La Roche). […] Protein concentrations were determined using the BCA kit (Thermo Fisher Scientific) by heating the samples at 60° C. for 30 min and measuring the absorption on the NanoDrop 2000c Spectrophotometer (Thermo Fisher Scientific). […]

[2] = tested on: 3R/4R MAPT mRNA, splicing factor SRSF2; test: Quantitative PCR of MAPT isoforms and splicing factors, annonacin model; conditions: annonacin
Experimental: (§1) Nunc™ Nunclon™ Delta 6-well (for protein and mRNA) or 48-well (for cell assays) plates (Thermo Fisher Scientific, Waltham, Mass., USA) were coated with 100 μg/ml poly-L-lysine (Sigma-Aldrich, St. Louis, Mo., USA) and 5 μg/ml fibronectin (Sigma-Aldrich). LUHMES (Lund Human Mesencephalic) cells, derived from human embryonic ventral mesencephalic cells by conditional immortalization (Tet-off v-myc over-expression) were seeded out in a concentration of 130,000 cells/cm^2 to achieve a confluence of 50%. They were then differentiated for 8 days in a medium of DMEM/F12 (Sigma-Aldrich), 1 μg/ml tetracycline, […] and 490 μg/ml dbcAMP into post-mitotic neurons with a dopaminergic phenotype (Lotharius et al. 2005).
(§2) For all experiments with annonacin, the medium was replaced during the intoxication period with new medium containing glucose levels reduced to 250 μM, i.e. the physiological concentration in the human brain.
(§3) RNA from human tissue samples was extracted by grinding the tissue in liquid nitrogen to a powder and then dissolving it in the RA1 buffer supplied as part of the NucleoSpin® RNA (Macherey Nagel) RNA extraction kit+1% (v/v) 2-mercaptoethanol (Sigma-Aldrich). RNA from cells was extracted by scraping the cells from the culture plate with RA1 buffer+1% (v/v) 2-mercaptoethanol. The remaining extraction procedure was according to the manufacturer's instructions for the NucleoSpin® RNA kit. RNA concentrations were determined using the NanoDrop 2000c Spectrophotometer. The RNA was then transcribed into cDNA with the iScript™ cDNA Synthesis Kit (BioRad) using the manufacturer's instructions. Real-Time PCR was performed on the Applied Biosystems® StepOnePlus™ (Life Technologies) system using TagMan® Universal Master Mix II and TaqMan® primers against total MAPT, MAPT 3R, MAPT 4R, EIF2A, EI2AK3 and ATF4. POL2A and PSCM1 served as reference targets as they were determined to be the most stably expressed across experimental conditions. The results were analyzed using the StepOne Plus software (Life Technologies) and Qbase software (Biogazelle) and were then graphically and statistically analyzed with Prism 6 (GraphPad Software). Absolute quantification was performed by creating a standard curve with plasmids containing either the 2N3R or the 2N4R spliced variant of MAPT (see Table 2). The absolute quantity was computed by deriving the relationship between CT values and absolute quantity with the StepOne Plus software.

LUHMES neurons [3] = test: ATP assay, annonacin-treated LUHMES neurons; conditions: annonacin alone, different concentrations, 48 h
Experimental: as §1, §2
ATP assays were conducted using the ViaLight™ plus kit by Lonza according to the manufacturer's instructions. Luminescence was read with the FLUOstar Omega (BMG Labtech) platereader. The data was analyzed using the MARS Data Analysis Software (BMG Labtech) and Prism 6.

[4] = tested on: EIF2AK3, EIF2A and ATF4 mRNA; test: Quantitative PCR of UPR genes in differentiated LUHMES neurons; conditions: 48 h; for ATF4 mRNA expression: thapsigargin 30 nM or annonacin 25 nM
Experimental: as §1, §2, §3

[5] = tested on: unfolded protein response (PERK, EIF2A); test: Western blot of UPR proteins in differentiated LUHMES neurons; conditions: 48 h; for phosphorylated EIF2A (pEIF2A) protein / phosphorylated PERK (pPERK) protein: thapsigargin 30 nM or annonacin 25 nM
Experimental: as §1, §2
(§4) Protein was extracted by scraping the cells from the culture plate with Mammalian Protein Extraction Reagent (M-PER, Thermo Fisher Scientific) and 1× cOmplete Protease Inhibitor Cocktail Tablets (Hoffmann-La Roche, Basel, Switzerland) and 1× PhosSTOP Phosphatase Inhibitor Cocktail Tablets (Hoffmann-La Roche). For pNRF2 blots, cells were extracted with 2% SDS tris-buffer instead of M-PER in order to obtain whole cell extracts and not to lose the nuclear fraction. The protein solution was frozen at −80° C., immediately after retrieval, for a minimum of two hours. The solution was then thawed on ice, vortexed, centrifuged at 5000 g for 15 min at 4° C. and the supernatant retrieved. Protein concentrations were determined using the BCA kit (Thermo Fisher Scientific) by heating the samples at 60° C. for 30 min and measuring the absorption on the NanoDrop 2000c Spectrophotometer (Thermo Fisher Scientific).
200 μg of protein were diluted to equal concentrations with M-PER lysis buffer (Thermo Fisher Scientific) up to 270 μl. The PERK D11A8 antibody (Cell Signaling Technology, Beverly, Mass., USA) was added to a concentration of 1:100 and allowed to bind the antigen for one hour in a rotating 1.5 ml microcentrifuge tube. Then 30 μl of protein sepharose A beads (Sigma-Aldrich, 3 mg per ml) were added to each tube and left rotating overnight at 4° C. The tubes were then centrifuged at 10,000 g for 3 minutes and the supernatant was discarded. The beads were washed in M-PER three times. Each time the beads were centrifuged and the supernatant was extracted with a Hamilton Syringe (Hamilton, Bonaduz, Switzerland) and discarded. The beads were then mixed with 15 μl 1× Roti®-Load 1 (Carl Roth) and heated at 95° C. for 5 minutes. After another centrifugation step of 10,000 g for 1 minute the supernatant was loaded onto a gel with the Hamilton syringe and then blotted as described below.
(§5) 20 μg of protein (unless indicated otherwise) were adjusted to equal concentrations between samples by dilution with M-PER and subsequently heated at 95° C. for 5 minutes with Roti®-Load 1 (Carl Roth). SDS-PAGE was performed using Any kD™ Mini-PROTEAN® TGX™ Gels (BioRad, Berkeley, Calif., USA) in a tris-glycine running buffer. The protein was blotted onto PVDF membrane (BioRad) at 70 V for 65 minutes on ice. The membrane was blocked with 1× Roti®-Block solution (Carl Roth) for 1 h and then incubated at 4° C. overnight under gentle shaking with the primary antibody (see Table 5) in TBS with 5% BSA (Cell Signaling Technology) and 0.05% TWEEN (Sigma-Aldrich).
The membranes were then washed and incubated with the species specific HRP-bound secondary antibody (Vector Laboratories, Burlingame, Calif., USA) at 1:2500 in 1× Roti®-Block solution for 2 h, followed by further washing and exposure to Clarity Western ECL Substrate (BioRad) or, in the case of MC1 and 4R-tau, to Amersham™ ECL™ Prime (GE Healthcare). […]

tau = test: Western blot of tau conformation and phosphorylation, annonacin model; conditions: annonacin 25 nM, 48 h
Experimental: as §1, §2, §4, §5
The membranes were then washed and incubated with the species specific HRP-bound secondary antibody (Vector Laboratories, Burlingame, Calif., USA) at 1:2500 in 1× Roti®-Block solution for 2 h, followed by further washing and exposure to Clarity Western ECL Substrate (BioRad) or, in the case of MC1 and 4R-tau, to Amersham™ ECL™ Prime (GE Healthcare). Chemiluminescence was detected with the Gel Doc™ XR System (BioRad) and analyzed with Image Lab™ software (BioRad), followed by graphical and statistical analysis with Prism 6 (GraphPad Software).

LUHMES neurons [6] = test: Morphological inspection and counts of viable cells; conditions: annonacin 25 nM, 48 h
Experimental: as §1, §2
The protection by the PERK activator against annonacin and 4R-tau protein overexpression was also evident on morphological inspection of the cells. […] Lentiviral 4R-tau overexpression had similar effects. […] Cell counts of viable cells with intact nuclear and somatic morphology were counted in randomly selected 1300×1000 sized areas in 4 biological replicates each, confirming the protective effects of Pa.

LUHMES neurons [7] = test: MTT assay, annonacin-treated LUHMES neurons; conditions: annonacin alone, different concentrations, 48 h
Experimental: as §1, §2
Thiazolyl Blue Tetrazolium […] (MTT) (Sigma Aldrich) was dissolved in sterile PBS to a concentration of 5 mg/ml. This stock solution was added to the cells in culture medium to achieve a final concentration of 0.5 mg/ml. The 48-well culture plate was then incubated at 37° C. for 1 h, the medium removed completely and frozen at −80° C. for 1 h. The plate was then thawed, 300 μl DMSO (AppliChem, Darmstadt, Germany) was added per well and the plate was shaken to ensure complete dissolution of the violet crystals. 100 μl from each well were transferred to a new 96-well plate and the absorbance was read with the FLUOstar Omega (BMG Labtech) platereader at a wavelength of 590 nm (reference wave length 630 nm). The data was analyzed using the MARS Data Analysis Software (BMG Labtech) and Prism 6.

| Structure (SMILES) | 4R-tau protein level [1] | splicing factor SRSF2 mRNA [2] | 4R-tau mRNA level ([2]; 48 h) | ATP concentration (LUHMES neurons [3]) | EIF2A mRNA expression ([4]; annonacin 25 nM) | ATF4 mRNA expression [4] | total EIF2A protein ([5]; annonacin 25 nM, vs untreated) | total PERK protein ([5]; annonacin 25 nM, vs untreated) | phosphorylated EIF2A (pEIF2A) protein ([5]; vs untreated) | phosphorylated PERK (pPERK) protein ([5]; vs untreated) | total tau protein (HT7) (tau) | AD2 (p-Ser-396 and 404) tau phosphorylation (tau; vs control) | CP13 (p-Ser-202) tau phosphorylation (tau; vs control) | MC1 pathological tau conformation (tau; vs control) | condensation of DNA to chromatin clumps (LUHMES neurons [6]) | density of the dendritic network (LUHMES neurons [6]) | MTT signal (LUHMES neurons [7]) | EIF2AK3 mRNA expression ([4]; thapsigargin 30 nM) | pPERK/PERK ratio ([5]; thapsigargin 30 nM) |
| --- | --- | --- | --- | --- | --- | --- | --- | --- | --- | --- | --- | --- | --- | --- | --- | --- | --- | --- | --- |
| CCCCCCCCCCCC[C@@H](O)[C@H]1CC[C@H]([C@H](O)CCCC[C@H](O)CCCCC[C@@H](O)CC2=CC(C)OC2=O)O1 (stereo partly shown) [annonacin] | increase | significantly increase | increase | concentration-dependent decline | upregulated | upregulated | reduced | reduced | reduced | increased | not altered | significantly increased | significantly increased | increased | led to the condensation of DNA to chromatin clumps | reduced | concentration-dependent decline |  |  |
| C/C=C(/C)C(=O)O[C@H]1C(C)=C2[C@H]([C@@H]1OC(=O)CCCCCCC)[C@@](C)(OC(C)=O)C[C@H](OC(=O)CCC)[C@@]1(O)[C@H]2OC(=O)[C@@]1(C)O [thapsigargin] |  |  |  |  |  | increased expression |  |  | increased phosphorylation | increased phosphorylation |  |  |  |  |  |  |  | increased expression | significantly increased |
